Measured values as given in article PMC6620786 (Molecular pharmaceutics, 2019).
pEC50: −log10 of the molar value.

Legend:
ABCB1 = ABCB1 (Homo sapiens, UniProt P08183); assay: vanadate-sensitive ATPase stimulation in insect cell membranes expressing ABCB1; format: biochemical
ABCG2 = biological target: T1, ABCG2 (Homo sapiens, UniProt Q9UNQ0); assay: vanadate-sensitive ATPase stimulation in insect cell membranes expressing ABCG2; format: biochemical
T1 sequence (Q9UNQ0 1-655): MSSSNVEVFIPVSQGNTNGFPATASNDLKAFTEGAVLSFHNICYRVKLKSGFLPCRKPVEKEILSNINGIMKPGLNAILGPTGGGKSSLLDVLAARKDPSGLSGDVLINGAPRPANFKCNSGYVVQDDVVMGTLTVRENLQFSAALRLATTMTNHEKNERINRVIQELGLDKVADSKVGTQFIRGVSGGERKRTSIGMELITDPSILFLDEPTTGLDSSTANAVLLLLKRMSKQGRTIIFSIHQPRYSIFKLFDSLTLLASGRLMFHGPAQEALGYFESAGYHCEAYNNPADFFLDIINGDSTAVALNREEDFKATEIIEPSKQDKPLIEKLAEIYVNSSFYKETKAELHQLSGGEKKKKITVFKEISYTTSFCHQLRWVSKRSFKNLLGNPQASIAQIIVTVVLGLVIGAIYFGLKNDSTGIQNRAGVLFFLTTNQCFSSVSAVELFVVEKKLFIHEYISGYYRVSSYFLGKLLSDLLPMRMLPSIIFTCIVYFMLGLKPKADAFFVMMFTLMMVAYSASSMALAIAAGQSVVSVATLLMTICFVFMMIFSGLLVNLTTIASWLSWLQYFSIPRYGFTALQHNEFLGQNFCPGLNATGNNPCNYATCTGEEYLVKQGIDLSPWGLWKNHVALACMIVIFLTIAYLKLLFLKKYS

Sequence of ABCB1 (P08183 whole entry): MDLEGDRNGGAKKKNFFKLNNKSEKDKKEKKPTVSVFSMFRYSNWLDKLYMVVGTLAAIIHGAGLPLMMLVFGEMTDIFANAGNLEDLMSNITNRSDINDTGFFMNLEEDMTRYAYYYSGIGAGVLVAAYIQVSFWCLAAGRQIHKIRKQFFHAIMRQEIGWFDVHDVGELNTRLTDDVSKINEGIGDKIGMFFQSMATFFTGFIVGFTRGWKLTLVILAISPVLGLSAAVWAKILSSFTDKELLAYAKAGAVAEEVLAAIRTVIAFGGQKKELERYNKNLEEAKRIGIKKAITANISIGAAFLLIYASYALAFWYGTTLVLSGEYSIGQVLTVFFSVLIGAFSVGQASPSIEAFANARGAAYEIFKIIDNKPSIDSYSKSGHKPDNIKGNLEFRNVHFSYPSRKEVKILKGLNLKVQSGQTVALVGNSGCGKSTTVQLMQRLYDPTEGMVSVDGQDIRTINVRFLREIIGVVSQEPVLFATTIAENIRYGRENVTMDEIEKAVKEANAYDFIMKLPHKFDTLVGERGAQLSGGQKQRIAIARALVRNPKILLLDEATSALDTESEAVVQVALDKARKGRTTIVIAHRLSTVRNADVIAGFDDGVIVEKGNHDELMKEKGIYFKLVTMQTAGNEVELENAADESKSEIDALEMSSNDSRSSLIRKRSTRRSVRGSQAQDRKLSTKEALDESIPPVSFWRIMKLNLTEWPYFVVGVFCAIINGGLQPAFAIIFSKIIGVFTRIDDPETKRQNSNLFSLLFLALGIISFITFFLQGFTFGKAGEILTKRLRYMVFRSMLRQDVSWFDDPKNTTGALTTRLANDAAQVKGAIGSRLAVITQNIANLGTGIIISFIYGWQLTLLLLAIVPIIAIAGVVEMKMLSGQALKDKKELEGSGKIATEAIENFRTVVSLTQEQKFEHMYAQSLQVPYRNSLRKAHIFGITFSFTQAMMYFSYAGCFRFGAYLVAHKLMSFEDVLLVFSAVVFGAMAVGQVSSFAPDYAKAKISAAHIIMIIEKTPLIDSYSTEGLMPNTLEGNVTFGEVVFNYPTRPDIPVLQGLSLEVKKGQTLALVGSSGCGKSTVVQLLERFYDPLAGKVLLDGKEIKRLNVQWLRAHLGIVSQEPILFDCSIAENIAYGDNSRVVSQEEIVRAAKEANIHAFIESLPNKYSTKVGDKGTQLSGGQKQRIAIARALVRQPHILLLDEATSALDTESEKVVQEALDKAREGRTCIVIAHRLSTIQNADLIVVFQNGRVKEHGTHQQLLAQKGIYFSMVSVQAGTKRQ

Cn1cc(-c2cc3c(N4CCN(c5ncc([C@@](C)(N)c6ccc(F)cc6)cn5)CC4)ncnn3c2)cn1 [avapritinib]
pEC50 (ABCB1): ~5.30 | pEC50 (ABCG2): ~6.70
